From patent publication US11224565B2, “N-acyldipeptide derivatives and their uses” (NeoStrata Company, Inc., priority 2011, dated 2022)
Peptide text beside a SMILES is read from it.

Columns and labels:
Type in all cases: in vivo, human
[1] = system: age spots including lentigines and keratosis; experiment: Topical treatment of age spots on face; conditions: twice daily, after 4 weeks; 1% (w/v) N-Ac-L-Cys-L-Tyr-NH2 in WEP442 pH 6.4 left side, 0.4% (w/v) N-Ac-L-Cys-L-Cys-NH2 in WEP442 right side
Text: A subject had multiple age spots including lentigines and keratosis on their face. Topical treatments with conventional medications including hydroquinone with or without glycolic acid had been unsuccessful. The subject topically applied twice daily to the left side of their face 1% (w/v) N—Ac-L-Cys-L-Tyr-NH2 in WEP442, pH 6.4 (Example 5), and to the right side of their face 0.4% (w/v) N—Ac-L-Cys-L-Cys-NH2 in WEP442 (Example 5) for several months. […] Continued topical applications of the formulations should improve or eradicate lentigines and keratosis of the face.

[2] = system: Aging related changes of skin, nail and hair; experiment: Summary of test results in volunteer subjects: aging related changes; conditions: efficacy grade
Text: (§1) In one embodiment, a composition for topical application to test its therapeutic effect was formulated by dissolving a bioactive dipeptide derivative of the present invention in a solution prepared from 40 parts water, 40 parts ethanol and 20 parts propylene glycol by volume (WEP442). In another embodiment, a composition was formulated by dissolving a bioactive dipeptide derivative of the present invention in a non-aqueous solution prepared from 80 parts ethanol and 20 parts propylene glycol by volume (EP82). In yet another embodiment, a composition was formulated first by dissolving a bioactive dipeptide derivative of the present invention in a solution prepared from 80 parts water and 20 parts propylene glycol by volume (WP82), and the solution thus prepared was mixed with an oil-in-water emulsion or cream. In another embodiment, the volunteer subject topically applied the test compositions containing N-acyldipeptide derivatives of the present invention on involved skin or lesions once or twice daily for several weeks or until the involved lesions completely cleared and clinically changed to normal skin. As a control study, the subject also topically applied a vehicle control composition on the involved skin or lesions twice daily for the same period. In yet another embodiment, the volunteer subject topically applied once or twice daily the test compositions containing N-acyldipeptide derivatives of the present invention on the skin site above arthritic joints or painful muscles to provide therapeutic effects for the systemic disorders via topical administration. Some test results are summarized as follows. AG: Aging related changes of skin, nail and hair

[3] = system: Disturbed keratinization; experiment: Summary of test results in volunteer subjects: disturbed keratinization; conditions: efficacy grade
Text: as §1, with “DK: Disturbed keratinization” for “AG: Aging related changes of skin, nail and hair”

[4] = system: Nerve disorders; experiment: Summary of test results in volunteer subjects: nerve disorders; conditions: efficacy grade
Text: as §1, with “ND: Nerve disorders” for “AG: Aging related changes of skin, nail and hair”

[5] = system: Deranged immune disorders and inflammation; experiment: Summary of test results in volunteer subjects: deranged immune disorders and inflammation; conditions: efficacy grade
Text: as §1, with “DI: Deranged immune disorders” for “AG: Aging related changes of skin, nail”, “inflammation” for “hair”

[6] = system: arthritis of both knees with edema and pain; experiment: Sublingual administration in arthritis of knees; conditions: 1 mg sublingually, kept under the tongue 15 minutes; after a few hours
Procedure: A subject had severe arthritis of both knees with edema and pain for many years. The conventional therapy had provided only temporary relief of knee pain and edema. The subject took N—Ac-L-Pro-Gly-NH2 (1 mg) sublingually and kept the dipeptide under the tongue for 15 minutes before swallowing.

[7] = Systemic administration under the tongue, tolerability; conditions: 1 mg powder under the tongue, twice daily for three days, person
Procedure: The subject took 1 mg N—Ac-L-Tyr-L-Tyr-OH powder under the tongue until it was dissolved completely. The same dose was taken twice daily for the next three days. […] Such systemic administration of the bioactive dipeptide derivative of the present invention is believed to have the potential of treating diseases, symptoms or syndromes associated with immune, tumors, cancers, nervous, vascular, musculoskeletal, cutaneous system, or other tissues and systems.

[8] = system: inflammation, dermatitis, or eczema lesions; experiment: Topical application to chronic inflammation, dermatitis, eczema or allergic skin lesions, clinical evaluation
Text: (§2) In another embodiment, the volunteer subject topically applied the test compositions containing N-acyldipeptide derivatives of the present invention on involved skin or lesions once or twice daily for several weeks or until the involved lesions completely cleared and clinically changed to normal skin. As a control study, the subject also topically applied a vehicle control composition on the involved skin or lesions twice daily for the same period.

[9] = system: forearm skin; experiment: Skin thickness of forearm by micrometer calipers after topical application; conditions: for increase in skin thickness of treated left forearm: 1% (w/v) in WEP442 topically twice daily, vehicle forearm no change
Procedure: In one of the studies related to skin changes associated with aging, skin thickness was measured by micrometer calipers as follows. The skin was grasped with a 2×6 cm metal hinge; the internal faces of which were coated with emery cloth to prevent slippage, and manually squeezed to threshold subject discomfort. Combined thickness of two whole-skin layers including thickness of the two hinge leaves was measured with micrometer calipers. Thickness of the two hinge leaves was subtracted to determine the actual thickness of two whole-skin layers. Triplicate measurements on treated sites were done and an average number was used for calculation of the skin thickness. In other studies, test sites of skin 17 mm in diameter were used, the circular sites were marked with permanent ink. Intervening control sites were also 17 mm in diameter. Thickness of skin of all sites was measured directly by means of an electronic digital caliper. In this instance the jaws of the caliper were opened to 17 mm, applied with pressure to the skin sites and then closed to firm tightness. Thickness of skin was then read off the screen of the calipers. Measurements of all sites were made in triplicates.

[10] = system: insect bites; experiment: Topical application to insect bite lesions (itch, erythema, inflammation); conditions: 10% (w/w) cream on insect bites of left arm
Procedure: A subject, having intensive itch and erythema on their left arm from insect bites, topically applied 10% (w/w) N—Ac-L-Leu-Gly-NH2 cream as formulated in Example 3 on the involved lesions.
A subject had multiple lesions of insect bites (mosquitoes) over the face and arms with itch and inflammatory lesions of more than 1 cm in size. For testing purposes, the subject divided the lesions into three groups: the first group was treated with vehicle control, the second and third groups were treated with active compositions. The subject topically applied twice daily 0.5% (w/v) N—Ac-L-Val-L-Ala-NH2 solution in WEP442, pH 5.9 on the lesions of the second group, and 0.5% (w/v) N—Ac-L-Tyr-L-Tyr-NH2 solution in WEP442, pH 6.7 (Example 5) on the lesions of the third group. […] The lesions in the second and third groups also started to improve over the next few days. At the end of three days, while there was no discernible change in the lesions treated with vehicle control in the first group, the lesions in the second and third groups had 90-100% improvement with nearly complete disappearance of inflammatory lesions.
A subject had multiple lesions of chigger bites (grass mites) over the legs with intensive itch and red inflammatory lesions. The subject topically applied twice daily 0.5% (w/v) N—Ac-L-Val-L-Ala-NH2 solution in WEP442, pH 6.7 (Example 5) on the lesions. […] The lesions on the legs had 100% improvement as judged by clinical evaluation.
as §2

Row | Structure (SMILES) | age spot lesions of face [1] | AG [2] | DK [3] | ND [4] | DI [5] | also measured
1 | CC(=O)N[C@@H](CS)C(=O)N[C@@H](CS)C(N)=O [N-Ac-L-Cys-L-Cys-NH2] (Ac-Cys-Cys-NH2) | started to improve noticeably | 3+ (3+: 75% Efficacy) | 2+ (2+: 50% Efficacy) | 2+ (2+: 50% Efficacy) | 2+ (2+: 50% Efficacy) | –
2 | CC(=O)N[C@@H](CS)C(=O)N[C@@H](Cc1ccc(O)cc1)C(N)=O [N-Ac-L-Cys-L-Tyr-NH2] (Ac-Cys-Tyr-NH2) | started to improve noticeably | 2+ (2+: 50% Efficacy) | 2+ (2+: 50% Efficacy) | 3+ (3+: 75% Efficacy) | 2+ (2+: 50% Efficacy) | –
3 | CC(=O)N1CCC[C@H]1C(=O)NCC(N)=O [N-Ac-L-Pro-Gly-NH2] (Ac-Pro-Gly-NH2) | – | 2+ (2+: 50% Efficacy) | 2+ (2+: 50% Efficacy) | 4+ (4+: 95-100% Efficacy) | 3+ (3+: 75% Efficacy) | edema and pain of arthritic knees [6]: diminished substantially
4 | CC(=O)N[C@@H](Cc1ccc(O)cc1)C(=O)N[C@@H](Cc1ccc(O)cc1)C(=O)O [N-Ac-L-Tyr-L-Tyr-OH] (Ac-Tyr-Tyr-OH) | – | 4+ (4+: 95-100% Efficacy) | 3+ (3+: 75% Efficacy) | 4+ (4+: 95-100% Efficacy) | 3+ (3+: 75% Efficacy) | irritation or side reactions [7]: did not provoke any irritation or side reactions; itch after topical application ([8]; 0.4% (w/v) in WEP442 pH 3.7 twice daily, inflammatory dermatitis on both arms): stopped within a few minutes; improvement as judged by clinical evaluation ([8]; 0.4% (w/v) in WEP442 pH 3.7 twice daily, inflammatory dermatitis on both arms, end of one week): 95%; increase in skin thickness of treated left forearm ([9]; after 2 weeks): 16%; increase in skin thickness of treated left forearm ([9]; after 4 weeks): 17%; increase in skin thickness of treated left forearm ([9]; after one week): 16%; appearance of treated left forearm at end of treatment ([9]; 1-3% (w/v) in WEP442 topically twice daily for 1-6 weeks as in the example, vehicle forearm still loose, thin and wrinkled): more firm, smooth, plump, and less wrinkled when lifted
5 | CC(=O)N[C@@H](CC(C)C)C(=O)NCC(N)=O [N-Ac-L-Leu-Gly-NH2] (Ac-Leu-Gly-NH2) | – | 3+ (3+: 75% Efficacy) | 3+ (3+: 75% Efficacy) | 4+ (4+: 95-100% Efficacy) | 4+ (4+: 95-100% Efficacy) | improvement as judged by clinical evaluation ([8]; 6% (w/w) oil-in-water emulsion twice daily, chronic eczema large body areas, end of 10 days): 95%; itch after topical application ([8]; 6% (w/w) oil-in-water emulsion twice daily, chronic eczema large body areas, person): stopped within a few minutes; improvement as judged by clinical evaluation ([8]; 7% (w/w) oil-in-water emulsion twice daily, chronic eczema, end of 10 days): 90-100%; itch after topical application ([8]; 7% (w/w) oil-in-water emulsion twice daily, chronic eczema, person): stopped within a few minutes; improvement as judged by clinical evaluation ([8]; 10% (w/w) cream twice daily, chronic eczema right leg, end of one week): 50%; itch after topical application ([8]; 10% (w/w) cream twice daily, chronic eczema right leg, person): stopped within a few minutes; itch after topical application [10]: stopped within a few minutes; time the pruritus did not return [10]: 6 h; erythema and inflammation ([10]; after 12 hours): improved
